# Reference: US9656953B2, “Inhibition of cell proliferation” (University of South Florida, priority 2005, dated 2017)
# Entries after “also recorded” stand apart in the source; their conditions may differ.
# How the values were obtained:
# [1] = tested on: Aspc1, PANC1, and CAPAN2 pancreatic cancer cells; assay: BrdU incorporation, S-phase entry, pancreatic cancer cells; assay type: cell-based; conditions: range over three pancreatic cell lines
# Procedure: (§1) Proliferation assays. Bromodeoxyuridine (BrdU) labeling kits were obtained from Roche Biochemicals (Indianapolis, Ind.). Cells were plated in poly-D-lysine coated chamber slides at a density of 10,000 cells per well and rendered quiescent by serum starvation for 24 hours. Cells were then re-stimulated with serum in the presence or absence of the indicated drugs for 18 h. S-phase cells were visualized by microscopy and quantitated by counting 3 fields of 100 in quadruplicate.
# cyclin E kinase activity = assay: In vitro kinase assay, cyclin E; assay type: biochemical
# Procedure: (§2) In vitro kinase assay. The kinase reaction for Raf-1 was carried out with 100 nanograms (ng) of Raf-1 (Upstate Signaling, Charlottesville, Va.), 0.5 μg of full-length Rb protein (QED Bioscience, San Diego, Calif.) as the substrate, 10 μM ATP, 10 μCi of [γ-^32P] ATP in the kinase assay buffer in the presence or absence of the drugs at 30° C. for 30 minutes. Cyclin D and E kinase assays are described in (Dasgupta 2004).
# Raf-1 = target: T1, Raf-1 (Homo sapiens, UniProt P04049); assay: In vitro kinase assay, Raf-1; assay type: biochemical
# T1 construct: purchased Upstate Signaling, Charlottesville, Va; (Raf-1); QED Bioscience, San Diego, Calif; (Rb)
# T1 sequence (P04049 whole entry): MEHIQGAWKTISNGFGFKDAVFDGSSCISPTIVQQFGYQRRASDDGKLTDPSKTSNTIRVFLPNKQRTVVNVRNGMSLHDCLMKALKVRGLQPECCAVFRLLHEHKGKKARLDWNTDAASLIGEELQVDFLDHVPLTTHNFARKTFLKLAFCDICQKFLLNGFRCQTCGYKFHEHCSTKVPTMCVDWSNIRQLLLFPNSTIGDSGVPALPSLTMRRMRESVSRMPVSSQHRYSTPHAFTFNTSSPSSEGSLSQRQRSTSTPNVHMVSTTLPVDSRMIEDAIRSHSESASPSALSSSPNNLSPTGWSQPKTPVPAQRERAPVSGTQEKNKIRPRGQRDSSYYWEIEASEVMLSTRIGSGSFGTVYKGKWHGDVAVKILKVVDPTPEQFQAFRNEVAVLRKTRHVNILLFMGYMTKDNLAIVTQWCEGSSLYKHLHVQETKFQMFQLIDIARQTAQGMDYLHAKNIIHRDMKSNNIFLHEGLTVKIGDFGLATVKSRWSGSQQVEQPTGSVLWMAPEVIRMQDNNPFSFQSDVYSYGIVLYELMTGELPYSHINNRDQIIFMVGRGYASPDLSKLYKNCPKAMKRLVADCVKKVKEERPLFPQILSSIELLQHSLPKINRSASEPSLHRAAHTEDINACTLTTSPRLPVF
# Procedure: as §2
# [2] = tested on: A549 cells infected with Ad-cyclin D; assay: BrdU incorporation, A549 infected with Ad-cyclin D; assay type: cell-based, human; conditions: 20 μM of 3a for 36 h
# Procedure: as §1
# (§3) To this end, A549 cells were infected with Ad-E2F1 or Ad-cyclin D, in the presence of 20 μM of 3a for 36 h. Ad-GFP infected cells were used as a control.
# [3] = tested on: A549 cells infected with Ad-E2F1; assay: BrdU incorporation, A549 infected with Ad-E2F1; assay type: cell-based, human; conditions: 20 μM of 3a for 36 h
# Procedure: as §1, §3
# [4] = target: T2, Rb/E2F1 interaction in tumor xenografts (Homo sapiens, UniProt P06400+Q01094); assay: IP-Western of tumor lysates, Rb/E2F1; assay type: in vivo, nude mice; conditions: both doses
# T2 construct: from tissue; host or cells: A549 xenograft tumors from nude mice
# T2 sequence (P06400 whole entry): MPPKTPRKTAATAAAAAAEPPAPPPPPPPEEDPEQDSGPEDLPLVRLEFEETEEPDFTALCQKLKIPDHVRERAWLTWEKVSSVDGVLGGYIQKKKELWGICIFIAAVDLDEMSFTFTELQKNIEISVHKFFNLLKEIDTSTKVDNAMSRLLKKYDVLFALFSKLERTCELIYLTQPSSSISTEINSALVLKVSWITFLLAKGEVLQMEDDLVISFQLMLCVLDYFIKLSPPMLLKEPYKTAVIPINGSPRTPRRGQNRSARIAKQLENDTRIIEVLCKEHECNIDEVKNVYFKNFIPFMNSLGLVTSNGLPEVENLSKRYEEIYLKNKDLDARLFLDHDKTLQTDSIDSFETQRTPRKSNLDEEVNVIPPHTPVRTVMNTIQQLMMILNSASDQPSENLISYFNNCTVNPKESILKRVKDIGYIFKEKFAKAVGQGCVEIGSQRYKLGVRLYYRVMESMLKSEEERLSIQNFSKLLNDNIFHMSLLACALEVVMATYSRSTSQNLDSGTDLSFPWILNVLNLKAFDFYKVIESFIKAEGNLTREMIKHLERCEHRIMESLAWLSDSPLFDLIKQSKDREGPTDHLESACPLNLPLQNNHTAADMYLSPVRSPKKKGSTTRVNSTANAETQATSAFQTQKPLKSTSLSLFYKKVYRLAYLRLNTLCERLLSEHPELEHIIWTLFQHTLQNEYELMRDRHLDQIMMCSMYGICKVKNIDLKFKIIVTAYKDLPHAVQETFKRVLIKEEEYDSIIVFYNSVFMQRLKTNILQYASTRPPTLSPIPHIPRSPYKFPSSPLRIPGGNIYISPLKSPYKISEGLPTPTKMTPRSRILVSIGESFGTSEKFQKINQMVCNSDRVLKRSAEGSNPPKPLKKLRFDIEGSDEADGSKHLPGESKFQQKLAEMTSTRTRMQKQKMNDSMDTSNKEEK
# T2 sequence (Q01094 whole entry): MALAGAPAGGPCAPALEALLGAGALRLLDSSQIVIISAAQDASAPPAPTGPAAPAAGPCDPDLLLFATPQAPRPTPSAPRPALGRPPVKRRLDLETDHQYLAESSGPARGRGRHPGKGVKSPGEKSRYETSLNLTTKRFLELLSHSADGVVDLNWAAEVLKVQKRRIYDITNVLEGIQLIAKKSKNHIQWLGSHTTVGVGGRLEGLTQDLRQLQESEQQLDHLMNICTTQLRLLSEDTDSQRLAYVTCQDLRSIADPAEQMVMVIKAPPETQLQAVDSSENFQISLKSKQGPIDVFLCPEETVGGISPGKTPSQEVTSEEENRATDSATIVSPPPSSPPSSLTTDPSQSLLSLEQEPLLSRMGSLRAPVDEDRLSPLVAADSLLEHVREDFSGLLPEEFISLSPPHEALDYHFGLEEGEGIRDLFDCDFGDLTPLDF
# A549 tumors = assay: Immunohistochemistry staining of A549 xenograft tumors; assay type: in vivo, nude mice; conditions: A549 tumors at end of treatment
# Source text: Immunohistochemistry staining. Upon termination of xenograft anti-tumor experiments, tumors were removed and fixed in 10% neutral-buffered formalin before processing into paraffin blocks. Tissue sections (5 micrometers (μm) thick) were cut from the blocks and stained with Ki-67, CD31, TUNEL, and phospho-Rb antibodies. Paraffin sections were rehydrated to PBS and processed using the following protocols. Sections were rinsed in dH2O, and then subjected to microwave ‘antigen retrieval’ for 20 minutes on 70% power, with a 1 minute cooling period after every 5 minutes, in 0.01 M sodium citrate, pH 6.0 (Janssen P J, Brinkmann A O, Boersma W J, Van der Kwast T H. J Histochem Cytochem 1994; 42(8):1169-75; Shi S R, Key M E, Kalra K L. J Histochem Cytochem 1991; 39(6):741-748). Sections were cooled for 20 minutes, rinsed 3 times in dH2O, twice in PBS and incubated in 5% normal goat serum for 30 minutes. Sections were incubated in primary antibody for 1 hour in 5% normal goat serum, rinsed 3 times in PBS. For color development the slides were treated with ABC kit (Vector Labs, Burlingame, Calif.) rinsed in dH2O, and developed using DAB as chromogen. After a final rinse in dH2O, sections were lightly counterstained in hematoxylin, dehydrated, cleared and coverslipped. Tissue sections were stained with hematoxylin and eosin (H&E) using standard histological techniques. Tissue sections were also subjected to immunostaining for CD31 (BD Biosciences, San Diego, Calif., USA) using the avidin-biotin peroxidase complex technique. Mouse monoclonal antibody was used at 1:50 dilution following microwave antigen retrieval (four cycles of 5 min each on high in 0.1 M citrate buffer). Apoptotic cells were detected using DeadEnd Colorimetric TUNEL system (Promega, Madison, Wis.).
# At the end of the drug treatment, the A549 tumors were removed from the mice and fixed in formalin or snap frozen in liquid nitrogen for further histochemical analysis. The tumors were analyzed by immunohistochemistry staining with hematoxylin and eosin (H&E), TUNEL, Ki-67, phospho-Rb (807,811), and CD-31. […] Tumors were homogenized and lysates were prepared to assess the inhibition of Rb:Raf-1 interaction in vivo.
# H1650 tumors = assay: H1650 xenograft in nude mice; assay type: in vivo
# [5] = tested on: binding of Raf-1 to Mek1/2; assay: IP-western, A-549 cells, Raf-1-Mek1/2; assay type: cell-based, human
# Source text: Lysate preparation, pmmunoprecipitation, and pestern plotting.
smiles,measurement,setting,value
Cl.N=C(N)SCc1ccc(Cl)cc1Cl [Compound 3a],"inhibition of S-phase entry, Aspc1, PANC1, CAPAN2",[1],50-65%
same,cyclin E kinase activity,cyclin E kinase activity,does not inhibit; also recorded: did not affect the kinase activities
same,Raf-1 kinase activity,Raf-1,does not inhibit; also recorded: did not affect the kinase activities
same,rescue of anti-proliferative activity by cyclin D over expression,[2],only a partial effect
same,rescue of anti-proliferative activity by E2F1 over expression,[3],sufficient to overcome; also recorded: efficiently overcame the anti-proliferative activity
same,Rb/E2F1 interaction in tumor lysates,[4],without inhibiting Rb-E2F1 interaction; also recorded: not Rb/E2F1 interaction
same,"apoptosis, TUNEL staining of tumors",A549 tumors,dose dependent increase in apoptosis
same,"microvasculature, CD31 staining of tumors",A549 tumors,reduction in microvasculature
same,phospho-Rb staining of tumors,A549 tumors,reduction in phosphorylation of Rb
same,"proliferation, Ki-67 staining of tumors",A549 tumors,significant inhibition of proliferation
same,H1650 tumor growth in words,H1650 tumors; 50 mpk i.p.,inhibited H1650 xenograft tumor growth; also recorded: inhibited the growth of these tumors significantly
same,"tumor size, H1650 xenograft","H1650 tumors; 50 mpk/day i.p., vehicle 2185±326 mm^3",557±76 mm3
same,serum-mediated binding of Raf-1 to Mek1/2,[5],not affected
